In patent US9193719B2, “1,2,4-triazol-5-ones and analogs exhibiting anti-cancer and anti-proliferative activities” (Deciphera Pharmaceuticals, LLC, priority 2013, dated 2015) one finds IC50 data, which are given here for 21 compounds.

In one assay the test system is M-NFS-60 cells. As to the kind of experiment: M-NFS-60 cell proliferation assay (resazurin). Particulars: 67 h incubation. In kind it is cell-based. The essentials: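 Cells kept in medium containing 20 ng/mL mouse recombinant M-CSF. Fluorescence was read at ex 540/em 600 nm, and IC50 was fitted from percent inhibition across a range of inhibitor concentrations.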
(In general: The colour change of resazurin is a common sign of viable cells or microbes.)

Assay [1] has as its target T1, unphosphorylated PDGFRβ kinase (uPDGFRβ, Seq. ID No. 3) (Homo sapiens, UniProt P09619).
T1 construct: purchased DeCode
The assay is described as follows: uPDGFRβ kinase enzymatic assay (pyruvate kinase/lactate dehydrogenase coupled). In kind it is biochemical. Particulars: ATP 500 μM, rate 1.5 to 2.5 h. Put shortly:
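Unphosphorylated PDGFRβ (15.7 nM) with 500 μM ATP and poly E4Y (2.5 mg/mL) in Tris pH 7.5, 0.2% octyl-glucoside, 1% DMSO; ADP coupled via PK/LDH to NADH oxidation at A340, read continuously 4 h at 30 °C. Rates from 1.5–2.5 h window versus no-compound control gave IC50.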

The target in assay [2] is T2, unphosphorylated c-KIT kinase (uKIT, Seq. ID no. 2) (Homo sapiens, UniProt P10721).
T2 construct: uKit with N-terminal GST fusion used for screening
As to the kind of experiment: uKit kinase enzymatic assay (pyruvate kinase/lactate dehydrogenase coupled). Particulars: ATP 2000 μM, rate 3 to 4 h. In kind it is biochemical. The essentials: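 Coupled pyruvate kinase/lactate dehydrogenase readout of ADP, following NADH oxidation at A340 continuously for 4 h at 30 °C. Mix: 12 nM unphosphorylated KIT, 1 mg/mL polyE4Y, 2000 μM ATP, 10 mM MgCl2, 90 mM Tris pH 7.5, 0.2% octyl-glucoside, 1% DMSO. IC50 from % inhibition of rates at 3–4 h.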

The subject of a further assay is osteoclast precursors. As to the kind of experiment: Osteoclast tartrate-resistant acid phosphatase assay. Particulars: RANKL and M-CSF, 7-14 days, tartrate-resistant acid phosphatase activity. It is filed as cell-based.

T1 sequence (P09619 557-1106): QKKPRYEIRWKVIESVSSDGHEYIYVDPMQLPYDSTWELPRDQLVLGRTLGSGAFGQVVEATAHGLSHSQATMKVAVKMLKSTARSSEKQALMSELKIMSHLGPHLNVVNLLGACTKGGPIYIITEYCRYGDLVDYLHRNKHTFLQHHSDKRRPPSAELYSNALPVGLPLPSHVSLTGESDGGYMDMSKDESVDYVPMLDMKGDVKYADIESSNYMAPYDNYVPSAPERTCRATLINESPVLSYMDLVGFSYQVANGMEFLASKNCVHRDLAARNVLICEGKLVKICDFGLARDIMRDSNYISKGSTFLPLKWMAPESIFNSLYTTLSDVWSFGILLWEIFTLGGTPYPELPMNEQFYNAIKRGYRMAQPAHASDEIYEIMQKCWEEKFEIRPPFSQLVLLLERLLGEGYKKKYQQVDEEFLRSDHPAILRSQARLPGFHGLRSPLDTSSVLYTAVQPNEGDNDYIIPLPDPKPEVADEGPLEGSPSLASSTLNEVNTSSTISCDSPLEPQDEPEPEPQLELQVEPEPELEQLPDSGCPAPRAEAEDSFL
T2 sequence (P10721 with tags, fused parts or gaps): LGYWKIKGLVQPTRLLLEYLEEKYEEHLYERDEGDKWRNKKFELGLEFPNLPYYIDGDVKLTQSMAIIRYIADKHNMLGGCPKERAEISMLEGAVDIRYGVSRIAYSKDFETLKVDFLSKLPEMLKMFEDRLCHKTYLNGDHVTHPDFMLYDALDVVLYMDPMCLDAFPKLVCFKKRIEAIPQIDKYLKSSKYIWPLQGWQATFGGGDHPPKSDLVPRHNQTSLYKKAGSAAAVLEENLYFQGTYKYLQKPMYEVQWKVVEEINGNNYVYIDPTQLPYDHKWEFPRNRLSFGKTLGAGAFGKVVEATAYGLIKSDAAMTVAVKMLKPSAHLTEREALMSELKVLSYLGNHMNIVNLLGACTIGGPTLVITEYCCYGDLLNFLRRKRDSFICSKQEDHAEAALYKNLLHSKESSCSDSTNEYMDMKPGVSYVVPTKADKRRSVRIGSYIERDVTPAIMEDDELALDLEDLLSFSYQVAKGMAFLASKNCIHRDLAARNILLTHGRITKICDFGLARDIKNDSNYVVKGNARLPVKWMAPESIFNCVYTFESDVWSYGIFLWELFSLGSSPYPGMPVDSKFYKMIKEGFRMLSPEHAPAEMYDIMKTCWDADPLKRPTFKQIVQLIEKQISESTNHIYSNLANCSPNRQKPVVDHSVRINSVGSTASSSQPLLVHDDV

For `Cc1nc(-n2nc(C3(C)CC3)[nH]c2=O)ccc1Oc1ccnc(-c2cnn(C)c2)c1` [Example 27, 1-(6-methyl-5-((2-(1-methyl-1H-pyrazol-4-yl)pyridin-4-yl)oxy)pyridin-2-yl)-3-(1-methylcyclopropyl)-1H-1,2,4-triazol-5(4H)-one], the IC50 is 10 to 100 nM in the assay on M-NFS-60 cells, above 1000 nM in assay [1], 100 to 1000 nM in assay [2] and 10 to 100 nM in the assay on osteoclast precursors.

For `CCn1cc(-c2cc(Oc3ccc(-n4nc(C(C)(C)C)[nH]c4=O)nc3C)ccn2)cn1` [Example 38, 3-(tert-butyl)-1-(5-((2-(1-ethyl-1H-pyrazol-4-yl)pyridin-4-yl)oxy)-6-methylpyridin-2-yl)-1H-1,2,4-triazol-5(4H)-one], the IC50 is 10 to 100 nM in the assay with M-NFS-60 cells, above 1000 nM in assay [1], above 1000 nM in assay [2] and 10 to 100 nM with osteoclast precursors.

For `Cc1cc(-n2nc(C(C)(C)C)[nH]c2=O)nc(C)c1Oc1ccnc(-c2cnn(C)c2)c1` [Example 33, 3-(tert-butyl)-1-(4,6-dimethyl-5-((2-(1-methyl-1H-pyrazol-4-yl)pyridin-4-yl)oxy)pyridin-2-yl)-1H-1,2,4-triazol-5(4H)-one], the IC50 (with M-NFS-60 cells; in assay [1]; in assay [2]; with osteoclast precursors) was 100 to 1000 nM each time.

In the case of `Cc1nc(-n2nc(CC(C)C)[nH]c2=O)ccc1Oc1ccnc(-c2cnn(C)c2)c1` [Example 22, 3-isobutyl-1-(6-methyl-5-((2-(1-methyl-1H-pyrazol-4-yl)pyridin-4-yl)oxy)pyridin-2-yl)-1H-1,2,4-triazol-5(4H)-one], the IC50 with M-NFS-60 cells is at most 10 nM; in assay [1], above 1000 nM; in assay [2], 10 to 100 nM; in the assay with osteoclast precursors it was 10 to 100 nM.

Turning to `COC(C)(C)c1nn(-c2ccc(Oc3ccnc(-c4cnn(C)c4)c3)c(C)n2)c(=O)[nH]1` [Example 16, 3-(2-methoxypropan-2-yl)-1-(6-methyl-5-((2-(1-methyl-1H-pyrazol-4-yl)pyridin-4-yl)oxy)pyridin-2-yl)-1H-1,2,4-triazol-5(4H)-one], the IC50 in the assay on M-NFS-60 cells was 100 to 1000 nM; in assay [1], above 1000 nM; in assay [2], above 1000 nM; in the assay on osteoclast precursors, 10 to 100 nM.

With `Cc1nc(-n2nc(C(C)(C)C)n(C)c2=O)ccc1Oc1ccnc(-c2cnn(C)c2)c1` [Example 13, 3-(tert-butyl)-4-methyl-1-(6-methyl-5-((2-(1-methyl-1H-pyrazol-4-yl)pyridin-4-yl)oxy)pyridin-2-yl)-1H-1,2,4-triazol-5(4H)-one], the IC50 in the assay on M-NFS-60 cells was 100 to 1000 nM; in assay [1] it was above 1000 nM; in assay [2] it was 100 to 1000 nM; with osteoclast precursors, 100 to 1000 nM.

For the compound `Cc1nc(-n2nc(C(C)(C)C)[nH]c2=O)ccc1Oc1ccnc(-c2cnn(C)c2)c1` [Example 7, 3-(tert-butyl)-1-(6-methyl-5-((2-(1-methyl-1H-pyrazol-4-yl)pyridin-4-yl)oxy)pyridin-2-yl)-1H-1,2,4-triazol-5(4H)-one], the IC50 in the assay on M-NFS-60 cells was 10 to 100 nM; in assay [1], above 1000 nM; in assay [2], 100 to 1000 nM; in the assay on osteoclast precursors it was 10 to 100 nM.

Consider `Cc1nc(-n2nc(C3(C(F)(F)F)CCC3)[nH]c2=O)ccc1Oc1ccnc(-c2cnn(C)c2)c1` [Example 43, 1-(6-methyl-5-((2-(1-methyl-1H-pyrazol-4-yl)pyridin-4-yl)oxy)pyridin-2-yl)-3-(1-(trifluoromethyl)cyclobutyl)-1H-1,2,4-triazol-5(4H)-one], for which the IC50 is 100 to 1000 nM with M-NFS-60 cells, 100 to 1000 nM in assay [1], 10 to 100 nM in assay [2] and 10 to 100 nM in the assay on osteoclast precursors.

Turning to `Cc1ccc(-c2cc(Oc3ccc(-n4nc(C(C)(C)C)[nH]c4=O)nc3C)ccn2)cn1` [Example 10, 3-(tert-butyl)-1-(6-methyl-5-((6′-methyl-[2,3′-bipyridin]-4-yl)oxy)pyridin-2-yl)-1H-1,2,4-triazol-5(4H)-one], the IC50 is 10 to 100 nM in the assay with M-NFS-60 cells, above 1000 nM in assay [1], above 1000 nM in assay [2] and 10 to 100 nM in the assay with osteoclast precursors.

Turning to `Cc1nc(-n2nc(C(C)(C)C)[nH]c2=O)ccc1Oc1ccnc(NC(=O)N(C)C)c1` [Example 30, 3-(4-((6-(3-(tert-butyl)-5-oxo-4,5-dihydro-1H-1,2,4-triazol-1-yl)-2-methylpyridin-3-yl)oxy)pyridin-2-yl)-1,1-dimethylurea], the IC50 in the assay on M-NFS-60 cells is above 1000 nM; in assay [1], above 1000 nM; in assay [2] it was above 1000 nM; in the assay with osteoclast precursors it was 10 to 100 nM.

For the compound `CCC(C)(C)c1nn(-c2ccc(Oc3ccnc(-c4cnn(C)c4)c3)c(C)n2)c(=O)[nH]1` [Example 25, 1-(6-methyl-5-((2-(1-methyl-1H-pyrazol-4-yl)pyridin-4-yl)oxy)pyridin-2-yl)-3-(tert-pentyl)-1H-1,2,4-triazol-5(4H)-one], the IC50 with M-NFS-60 cells was 10 to 100 nM; in assay [1], above 1000 nM; in assay [2] it was 10 to 100 nM; with osteoclast precursors, 10 to 100 nM.

With `Cc1cc(-n2nc(C(C)(C)C)[nH]c2=O)ncc1Oc1ccnc(-c2cnn(C)c2)c1` [Example 31, 3-(tert-butyl)-1-(4-methyl-5-((2-(1-methyl-1H-pyrazol-4-yl)pyridin-4-yl)oxy)pyridin-2-yl)-1H-1,2,4-triazol-5(4H)-one], the IC50 with M-NFS-60 cells is 10 to 100 nM; in assay [1], 100 to 1000 nM; in assay [2], 10 to 100 nM; in the assay on osteoclast precursors, 10 to 100 nM.

For the compound `Cc1nc(-n2nc(C3CCC3)[nH]c2=O)ccc1Oc1ccnc(-c2cnn(C)c2)c1` [Example 37, 3-cyclobutyl-1-(6-methyl-5-((2-(1-methyl-1H-pyrazol-4-yl)pyridin-4-yl)oxy)pyridin-2-yl)-1H-1,2,4-triazol-5(4H)-one], the IC50 in the assay with M-NFS-60 cells is 10 to 100 nM; in assay [1] it was 100 to 1000 nM; in assay [2], 100 to 1000 nM; in the assay on osteoclast precursors, at most 10 nM.

On to `Cc1nc(-n2nc(C3CCCCC3)[nH]c2=O)ccc1Oc1ccnc(-c2cnn(C)c2)c1` [Example 6, 3-cyclohexyl-1-(6-methyl-5-((2-(1-methyl-1H-pyrazol-4-yl)pyridin-4-yl)oxy)pyridin-2-yl)-1H-1,2,4-triazol-5(4H)-one], for which the IC50 with M-NFS-60 cells is at most 10 nM; in assay [1] it was 100 to 1000 nM; in assay [2], 10 to 100 nM; with osteoclast precursors it was 10 to 100 nM.

`Cc1cc(-c2cc(Oc3ccc(-n4nc(C(C)(C)C)[nH]c4=O)nc3C)ccn2)ccn1` [Example 9, 3-(tert-butyl)-1-(6-methyl-5-((2′-methyl-[2,4′-bipyridin]-4-yl)oxy)pyridin-2-yl)-1H-1,2,4-triazol-5(4H)-one]: the IC50 in the assay with M-NFS-60 cells was 10 to 100 nM; in assay [1], above 1000 nM; in assay [2], 100 to 1000 nM; with osteoclast precursors, 10 to 100 nM.

In the case of `Cc1nc(-n2nc(C(C)(C)C)[nH]c2=O)ccc1Oc1ccnc(-c2cnco2)c1` [Example 39, 3-(tert-butyl)-1-(6-methyl-5-((2-(oxazol-5-yl)pyridin-4-yl)oxy)pyridin-2-yl)-1H-1,2,4-triazol-5(4H)-one], the IC50 with M-NFS-60 cells was 10 to 100 nM; in assay [1] it was above 1000 nM; in assay [2], above 1000 nM; in the assay with osteoclast precursors it was 10 to 100 nM.

As to `Cn1cc(-c2cc(Oc3ccc(-n4nc(C(C)(C)C)[nH]c4=O)nc3)ccn2)cn1` [Example 4, 3-(tert-butyl)-1-(5-((2-(1-methyl-1H-pyrazol-4-yl)pyridin-4-yl)oxy)pyridin-2-yl)-1H-1,2,4-triazol-5(4H)-one], the IC50 in the assay on M-NFS-60 cells was 10 to 100 nM; in assay [1], above 1000 nM; in assay [2] it was 10 to 100 nM; in the assay on osteoclast precursors, 10 to 100 nM.

Consider `Cc1nc(-n2nc(C3CCOCC3)[nH]c2=O)ccc1Oc1ccnc(-c2cnn(C)c2)c1` [Example 20, 1-(6-methyl-5-((2-(1-methyl-1H-pyrazol-4-yl)pyridin-4-yl)oxy)pyridin-2-yl)-3-(tetrahydro-2H-pyran-4-yl)-1H-1,2,4-triazol-5(4H)-one], for which the 50% inhibitory concentration (IC50) in the assay on M-NFS-60 cells is 100 to 1000 nM; in assay [1] it was above 1000 nM; in assay [2], 100 to 1000 nM; in the assay on osteoclast precursors, 100 to 1000 nM.

With `Cc1nc(-n2nc(C(C)(C)C)[nH]c2=O)ccc1Oc1ccnc(-c2ccc(C3CCN(C)CC3)cc2)c1` [Example 14, 3-(tert-butyl)-1-(6-methyl-5-((2-(4-(1-methylpiperidin-4-yl)phenyl)pyridin-4-yl)oxy)pyridin-2-yl)-1H-1,2,4-triazol-5(4H)-one], the IC50 with M-NFS-60 cells was 10 to 100 nM; in assay [1], above 1000 nM; in assay [2], 10 to 100 nM; in the assay on osteoclast precursors, at most 10 nM.

Turning to `Cc1nc(-n2nc(C(C)(C)C)oc2=O)ccc1Oc1ccnc(-c2cnn(C)c2)c1` [Example 49, 5-(tert-butyl)-3-(6-methyl-5-((2-(1-methyl-1H-pyrazol-4-yl)pyridin-4-yl)oxy)pyridin-2-yl)-1,3,4-oxadiazol-2(3H)-one], the IC50 with M-NFS-60 cells was 10 to 100 nM; in assay [1] it was above 1000 nM; in assay [2], 100 to 1000 nM; in the assay on osteoclast precursors, 10 to 100 nM.

In the case of `Cc1nc(-n2nc(C(C)C)[nH]c2=O)ccc1Oc1ccnc(-c2cnn(C)c2)c1` [Example 5, 3-isopropyl-1-(6-methyl-5-((2-(1-methyl-1H-pyrazol-4-yl)pyridin-4-yl)oxy)pyridin-2-yl)-1H-1,2,4-triazol-5(4H)-one], the IC50 in the assay on M-NFS-60 cells is 10 to 100 nM; in assay [1] it was above 1000 nM; in assay [2], 100 to 1000 nM; in the assay with osteoclast precursors, 10 to 100 nM.

As a reminder, the IC50 is the concentration that gives 50% inhibition.
